From patent US20090143419A1, “METHODS AND COMPOSITIONS FOR CONTROLLING ECTOPARASITES” (HATCHTECH PTY LTD, priority 2005, published 2009)
“Also recorded” adds a separate entry of the source. Like-named read-outs stand apart in the source and are kept apart here. Square brackets hold non-standard residues; d marks the D form. Peptide text beside a SMILES is read from it. * marks the point of attachment. Sta = CC(C)C[C@H](N)[C@@H](O)CC(=O)O; Isovaleryl = CC(C)CC(=O)*

Assays:
[1] = test system: Helicoverpa armigera eggs (Tatura×Toowoomba strains); assay: Egg hatching of Helicoverpa armigera; conditions: Table 15
Procedure: Several hundred Helicoverpa armigera eggs (Tatura×Toowoomba strains) were collected, that had been laid on fine mesh cloth over a 24 hour period.
Batches of Helicoverpa eggs were exposed to a specific inhibitor solution for between 2-10 seconds the excess solution drained by blotting with dry tissue paper. The egg masses were then placed in a humid box at 25 degrees until egg hatch. Control eggs were exposed to absolute methanol as described above.

[2] = test system: Plutella xylostella eggs (Waite strain); assay: Egg hatching of Plutella xylostella; conditions: for % Inhibition: relative to controls
B. ovis eggs = assay: Egg hatching in Bovicola ovis; format: in vivo; conditions: 10 mM, 10 eggs per replicate
Procedure: B. ovis eggs were collected from the wool of sheep that were infested with this parasite. The eggs were collected using forceps and with the aid of a dissecting microscope and placed in 24 well tissue culture plates in duplicate lots of 10 eggs per replicate. The eggs were then exposed to either methanol alone (solvent control) or the test compounds for either 10 minutes or 1 minute or left as untreated controls before being removed from the wells and placed into individual glass vials containing a diet at the base of the tube. The tubes were placed in plastic containers containing a salt solution (to keep humidity constant at 68%) and the containers maintained at a temperature 32° C. The eggs were monitored for hatching over the following 12 days and % hatch inhibition determined in comparison to the controls.

[3] = test system: Plutella xylostella eggs (Waite strain); assay: Effect of added metal ions (FeSO4) on inhibition of Plutella xylostella egg hatching; format: in vivo; conditions: Table 18
Procedure: Within 24 hours of collection the following experimental design was chosen. Batches of eggs were exposed to either 10 mM 6,6′-dimethyl-2,2′-dipyridyl or solvent only (methanol) for 2 seconds. All batches of eggs were allowed to air dry for 20 minutes at room temperature. The eggs were then given a 2 second exposure to FeSO4 at either 10, 5 or 1 mM, air dried and put in the incubator at 24° C. and allowed to hatch over the next 6 days. In addition, a positive control of 10 mM 6,6′-dimethyl-2,2′-dipyridyl was set up in which eggs were exposed to this compound for 2 seconds, air dried and placed in the incubator.
Within 24 hours of collection the following experimental design was chosen. Batches of eggs were exposed to 10 mM 5,5′dimethyl-2,2′-dipyridyl or solvent only (methanol) for 2 seconds. All batches of eggs were allowed to air dry for 20 minutes at room temperature. The eggs were then given a 2 second exposure to FeSO4 at 10, 5 or 1 mM, air dried and put in an incubator at 24° C. and allowed to hatch over the next 6 days. In addition, a positive control of 10 mM, 5,5′-dimethyl-2,2′-dipyridyl was set up in which eggs were exposed to this compound for 2 seconds, air dried and placed in the incubator.

lice eggs [4] = assay: Time-course in vitro lice egg hatching assay; format: in vivo, clothing lice (Pediculus humanus humanus); conditions: for inhibition at 5000 µM: Pediculus humanus, 5 mM
[5] = test system: lice hatching proteases in the egg shell washings (ESW); assay: Gelatine substrate SDS-PAGE of egg shell washings treated with protease inhibitors; format: biochemical, Pediculus humanus humanus; conditions: 3 hrs at 37° C.
Procedure: Within 12 hours of hatching 50 body lice eggs (Pediculus humanus humanus) were removed from the hair and placed in a 1 ml eppendorf tube. 20 μL of distilled water was added to the unhatched eggs and the preparation incubated for 30 minutes at 32° C. The 20 μL was recovered, freeze dried and stored at −70° C. A number of other samples were also collected as described. Hair samples from which unhatched lice eggs had been removed were also collected and incubated as described above. In addition, a sample of unhatched eggs and a sample of hair from which lice eggs had been removed were collected 7 days post laying (within 24 hrs of egg hatching). Both samples were washed in 10 mls of a 1% solution of sodium hypochlorite for 1 minute followed by a 5×1 minute washes in 25 mls in distilled water to remove the hypochlorite. These samples were then incubated in 20 μL of distilled water as described above. In addition, a group of 25 lice eggs that were within 24 hours of hatching, were pretreated with 1% sodium hypochlorite, washed as described above and left to hatch. Within 1-2 hours after hatching the empty egg shells were incubated in 20 μL of distilled water as described above, the washings collected from the hatched egg shells and stored at −70° C. All of the extract samples were then freeze-dried overnight. The freeze-dried samples were then resuspended in 15 μL of non-reducing SDS sample buffer, centrifuged at 10,000 g for 2 minutes and the entire 15 μL loaded on to 10% gelatine substrate SD S-PAGE gels. Gels were run at 4° C. for 10 minutes at 10 mA followed by a further 25 minutes at 15 mA per gel. They were then incubated for 2×20 minutes in a 2.5% Triton-X 100 solution followed by a three hour incubation in 0.1M Tris/HCl containing 1 mM CaCl2 pH 8.0. Activity was detected as clear areas on the gel the result of protease activity degrading the gelatine within the gel.
10% SDS-PAGE gelatine substrate gels were loaded with freeze dried egg shell washings from 100 lice eggs that had been resuspended in 50 μl of non-reducing sample buffer with samples run at 10 μl per lane. Gels were run at 4° C. for 10 minutes at 10 mA per gel followed by a further 25 minutes at 15 mA per gel. Gels were then cut into strips and each strip incubated for 2×20 minutes in a 2.5% Triton-X 100 solution containing a specific inhibitor. The inhibitors used were the serine protease inhibitor PMSF (5 mM), the metalloprotease inhibitor 1,10-phenanthroline (10 mM), the aspartic protease Pepstatin (5 μM) and the cysteine inhibitor E-64 (10 μM). The gel strips were then incubated in 0.1M Tris/HCl containing 1 mM CaCl2 pH 8 containing the different protease inhibitors for 3 hrs at 37° C., before being stained in Coomassie blue and destained as previously described.

lice eggs [6] = assay: Lice egg-hatch bioassay, eggs treated five days post laying; format: in vivo, clothing lice (Pediculus humanus humanus)
Procedure: To evaluate the potential effects of protease inhibitors on lice egg hatching it was necessary to develop a reliable in vitro bioassay. Male and female clothing lice were fed on a rabbit as previously described. […] During this period the female lice laid their eggs and attached them to the woven cloth. All lice would then be removed and the eggs permitted to incubate for the following 5 days. […] The eggs would then progress through to their final stages of development and hatch. In untreated control eggs a reliable average percentage hatch of between 85-95 percent was obtained using the in vitro egg hatch assay. […] Lice eggs were laid onto cloth as described above. […] Protease inhibitor solutions were typically prepared as stock solutions and added fresh at the appropriate concentration. Specifically stock solutions were prepared as follows: 1,10-phenanthroline (200 mM in methanol) and bestatin (5 mg/ml in methanol). In addition, the equivalent levels of the solvent were added to the non-inhibitor containing controls eggs to test for any buffer alone effects. Percentage hatch inhibition was calculated as the percentage reduction in egg hatch compared to the untreated control.

[7] = Table 10, 1 mM, eggs laid on cloth
[8] = Table 10, 10 mM, eggs laid on cloth
[9] = Table 11, 1 mM, eggs laid on parafilm
[10] = Table 11, 10 mM, eggs laid on parafilm
[11] = Table 12, 0.01 mM, cloth, dipped approximately 2 seconds
[12] = Table 12, 0.1 mM, cloth, dipped approximately 2 seconds
[13] = Table 12, 1 mM, cloth, dipped approximately 2 seconds
[14] = Table 12, 10 mM, cloth, dipped approximately 2 seconds
[15] = 10 mM inhibitor alone, (+ve) control
[16] = 10 mM inhibitor followed by 2 second exposure to 1 mM FeSO4
[17] = 10 mM inhibitor followed by 2 second exposure to 5 mM FeSO4
[18] = 10 mM inhibitor followed by 2 second exposure to 10 mM FeSO4
[19] = 10 mM inhibitor followed by 2 second exposure to MEOH
[20] = Table 13, 0.1 mM, cloth, dipped approximately 2 seconds
[21] = Table 13, 1 mM, cloth, dipped approximately 2 seconds

SMILES: Cc1ccnc(-c2cc(C)ccn2)c1 [4,4′-dimethyl-2,2′-dipyridyl]
- Number hatched ([1]; 1 mM): 23
- Number unhatched ([1]; 1 mM): 29
- Number hatched ([1]; 10 mM): 8
- Number unhatched ([1]; 10 mM): 43
- Number hatched [2, 7]: 0
- Number unhatched [2, 7]: 30
- % Inhibition [2, 7]: 100%
- Number hatched [2, 8]: 0
- Number unhatched [2, 8]: 36
- % Inhibition [2, 8]: 100%
- Number hatched [2, 9]: 10
- Number unhatched [2, 9]: 121
- % Inhibition [2, 9]: 91%
- Number hatched [2, 10]: 0
- % Inhibition [2, 10]: 100%
- Number hatched [2, 11]: 29
- Number unhatched [2, 11]: 1
- Number hatched [2, 12]: 33
- Number unhatched [2, 12]: 18
- Number hatched [2, 13]: 0
- Number unhatched [2, 13]: 63
- Number hatched [2, 14]: 1
- Number unhatched [2, 14]: 77

SMILES: Cc1ccc(-c2ccc(C)cn2)nc1 [5,5′-dimethyl-2,2′-dipyridyl]
- Number unhatched (B. ovis eggs; 1 minute exposure): 10
- Number unhatched (B. ovis eggs; 10 minute exposure): 10
- Number hatched ([1]; 10 mM): 0
- Number unhatched ([1]; 10 mM): 42
- % Inhibition [3, 15]: 100%
- Number hatched [3, 15]: 0
- Number unhatched [3, 15]: 38
- Number hatched [3, 16]: 39
- Number unhatched [3, 16]: 0
- % Inhibition ([3]; 10 mM inhibitor followed by 2 second exposure to 1 mM FeSO4, relative to the FeSO4 only controls): 0%
- Number hatched [3, 17]: 25
- Number unhatched [3, 17]: 0
- % Inhibition ([3]; 10 mM inhibitor followed by 2 second exposure to 5 mM FeSO4, relative to the FeSO4 only controls): 0%
- Number hatched [3, 18]: 23
- Number unhatched [3, 18]: 2
- % Inhibition ([3]; 10 mM inhibitor followed by 2 second exposure to 10 mM FeSO4, relative to the FeSO4 only controls): 8%
- Number hatched [3, 19]: 16
- Number unhatched [3, 19]: 19
- Number hatched [2, 7]: 5
- Number unhatched [2, 7]: 22
- % Inhibition [2, 7]: 78%
- Number hatched [2, 8]: 0
- Number unhatched [2, 8]: 21
- % Inhibition [2, 8]: 100%
- Number hatched [2, 9]: 18
- Number unhatched [2, 9]: 151
- % Inhibition [2, 9]: 88%
- Number hatched [2, 10]: 0
- Number unhatched [2, 10]: 142
- % Inhibition [2, 10]: 100%
- Number hatched [2, 11]: 37
- Number unhatched [2, 11]: 3
- Number hatched [2, 12]: 22
- Number unhatched [2, 12]: 16
- Number hatched [2, 13]: 1
- Number unhatched [2, 13]: 45
- Number hatched [2, 14]: 0
- Number unhatched [2, 14]: 68
- Number hatched [2, 20]: 32
- Number unhatched [2, 20]: 52
- Number hatched [2, 21]: 2
- Number unhatched [2, 21]: 118
- % Inhibition of lice egg hatching (maximum over the time-course) (lice eggs [4]; 10 mM): 100%

SMILES: CC(C)C[C@H](NC(=O)[C@H]1O[C@@H]1C(=O)O)C(=O)NCCCCN=C(N)N [Inhibitor E-64]
- protease activity of the ESW ([5]; 10 μM inhibitor): No reduction in protease activity

SMILES: O=S(=O)(F)Cc1ccccc1 [PMSF]
- protease activity of the ESW ([5]; 5 mM inhibitor): No reduction in protease activity

SMILES: CC(C)C[C@H](NC(=O)[C@@H](O)[C@H](N)Cc1ccccc1)C(=O)O [bestatin, reference compound]
- lice egg hatching (lice eggs [6]; 5 mM, eggs treated 5 days post laying): significantly inhibit lice egg hatching
- inhibition of egg hatching (lice eggs [6]; added within 24 hours of hatching): variable inhibition
- inhibition at 5000 µM (lice eggs [4]; read-out: % Inhibition of lice egg hatching (maximum over the time-course)): 58%
- inhibition at 5000 µM (lice eggs [4]; 144 h, treated 144 hr post egg laying, read-out: Percent inhibition of egg hatching): 53%

SMILES: CC(C)CC(=O)N[C@H](C(=O)N[C@H](C(=O)N[C@@H](CC(C)C)[C@@H](O)CC(=O)N[C@@H](C)C(=O)N[C@@H](CC(C)C)[C@@H](O)CC(=O)O)C(C)C)C(C)C [pepstatin] (Isovaleryl-VV[Sta]A[Sta]-OH)
- protease activity of the ESW ([5]; 5 μM inhibitor): did not show any reduction in protease activity; also recorded: No reduction in protease activity
